Results: patent EP0951284B1, “[…] DERIVATIVES” (priority 1996, dated 1998)
Where a name gives a salt, the structure may show the parent alone.

What was measured:
mice = assay: Survival time of mice in hypobaric hypoxic episode; assay type: in vivo
Source text: The model is based on that described in Nakanishi, M. et al. Life Sci. (1973) 13: 467; Oshiro, et al., J. Med. Chem. (1991) 34: 2004-2013; and US Patent 4,788,130.
A 12 liter desiccator (desiccator A) and a 2.5 liter desiccator (desiccator B) were separately connected to a vacuum pump. Desiccator B was disconnected and allowed to equilibrate with room air whilst desiccator A was evacuated to a pressure of 100mmHg. Four male ICR albino mice (22-28g) were placed in desiccator B. Desiccator B was then closed to room air and connected to desiccator A. The pressure inside desiccator B was monitored using a mercury manometer and at the point the pressure in desiccator B reached 200mmHg (usually within 14 seconds), the two desiccators were disconnected from the vacuum pump and the pump switched off. The survival time from the moment of induction of hypoxia to the time of cessation of respiration was recorded. for each mouse for a maximum of 15 minutes after which time room air was reintroduced to desiccator B. Survivors were monitored for signs of lethargy or vitality.
Effect of drug treatment was assessed as the percent of the survival time of the drug treated group with respect to the saline injected or vehicle injected control group. Control groups were run twice, before and after each experimental group and consisted of 8 mice in groups of 4 mice to ensure a constant residual volume of oxygen in all tests. The effect of each dose of test drug was determined in duplicate i.e. two groups of 4 mice.
Positive reference drugs were sodium pentobarbital at a dose of 40 mg/kg, and diazepam 10 mg/kg given 0.5h prior to hypoxia, physostigmine 0.2 and 0.4 mg/kg and neostigmine 0.2 mg/kg given sc 30 min before hypoxia. Methyl atropine 1 mg/kg was given sc. 10 min. before physostigmine.
The volume of injection was 0.2-0.3 mL per mouse (10 mL/kg). The initial dose was about one third of the reported LD50 for acetylcholine esterase inhibition. If no protection could be obtained, the dose was further increased to the nearest non-toxic dose. In case of protection, the dose was further reduced in an attempt to locate the "protective" dose range.

MAO-B = assay: Inhibition of MAO activity ex vivo (brain tissue), PEA substrate; assay type: in vivo, mice; conditions: mouse brain tissue
Protocol: (§1) Male Sabra mice, weighing 45-50g were injected with test compound solutions (prepared in 0.9% saline). Each dose was administered to two or three mice. The mice were sacrificed two hours after drug administration or at a time corresponding to the peak AChE inhibition time (see Table 6). The brain and liver were rapidly dissected and stored in appropriate vials on ice. The tissues were weighed, diluted to 1/20 in sucrose 0.3M and stored at -20°C before performance of the MAO assay described above. The results given in Table 6 relate to measurements made on brain tissue only.

whole brain AChE = target: T1, whole brain AChE (Mus musculus, UniProt P21836); assay: Ex vivo measurement of brain AChE inhibition after sub-cutaneous administration; assay type: in vivo, mice; conditions: for Time to peak activity t / Time to return to 50% of peak t: AChE inhibition; for ED50: sc, sub-cutaneous, mouse whole brain, at peak of activity, read-out: AChE Inhibition Ex vivo ED50 (AC)
T1 construct: the brains rapidly removed (minus cerebellum), weighed and homogenized in 0.1M phosphate buffer pH 8.0; from tissue; host or cells: mouse brain (minus cerebellum) homogenate supernatant
T1 sequence (P21836 32-614): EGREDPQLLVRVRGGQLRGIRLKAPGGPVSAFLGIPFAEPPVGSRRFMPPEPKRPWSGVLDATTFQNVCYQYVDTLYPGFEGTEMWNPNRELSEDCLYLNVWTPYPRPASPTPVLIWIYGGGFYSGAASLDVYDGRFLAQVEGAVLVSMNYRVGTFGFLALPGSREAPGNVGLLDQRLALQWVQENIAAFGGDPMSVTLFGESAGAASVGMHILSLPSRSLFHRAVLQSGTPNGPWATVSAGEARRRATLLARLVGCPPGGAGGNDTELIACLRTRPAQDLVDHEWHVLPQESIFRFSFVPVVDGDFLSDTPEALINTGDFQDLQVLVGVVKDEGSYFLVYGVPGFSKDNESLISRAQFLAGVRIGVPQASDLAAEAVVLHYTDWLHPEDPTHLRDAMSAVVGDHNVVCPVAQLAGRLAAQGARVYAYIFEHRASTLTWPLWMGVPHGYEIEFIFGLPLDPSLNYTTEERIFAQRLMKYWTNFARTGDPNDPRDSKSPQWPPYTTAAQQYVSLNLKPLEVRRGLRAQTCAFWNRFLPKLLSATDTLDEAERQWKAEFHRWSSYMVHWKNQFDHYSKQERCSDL
Protocol: Test drugs or saline were administered sub-cutaneously to male mice (Sabra strain, 28-35g). At least 4-5 mice were used per dose and a minimum of 3 doses per drug were tested. The mice were sacrificed 15, 30, 60, 70, 90, 120 or 180 minutes after drug administration, the brains rapidly removed (minus cerebellum), weighed and homogenized in 0.1M phosphate buffer pH 8.0, containing Triton (1mg/100g tissue) and centrifuged to remove cell debris. Aliquots (25 µl) of the supernatant were then incubated with acetylthiocholine and DTNB. AChE activity measured as described above. The % inhibition of whole brain AChE by each dose of drug was calculated by comparison with enzyme activity from 3 saline treated control mice run at the same time.

[1] = Acute toxicity in mice (sub-cutaneous, lethality within 6 hours); conditions: mouse, in vivo, sc; for selectivity ratio: LD50 divided by ED50 (acetylcholine esterase ex vivo), read-out: Therapeutic Ratio (LD/AC); for LD50 at 6 h: sub-cutaneous, mice, within 6 hours
Protocol: Drugs were administered sub-cutaneously in at least 3 doses, to a minimum of 10 mice per dose. […] Therapeutic Ratio was calculated as LD50 divided by ED50(acetylcholine esterase ex vivo).

MAO-A [2] = assay: Inhibition of MAO activity ex vivo (brain tissue), 5-HT substrate; assay type: in vivo, mice; conditions: mouse brain tissue
Protocol: as §1

MAO-A [3] = target: T2, MAO-A (Rattus norvegicus, UniProt P21396); assay: Inhibition of MAO activity in vitro, rat brain homogenate, 5-HT substrate
T2 sequence (P21396 1-526): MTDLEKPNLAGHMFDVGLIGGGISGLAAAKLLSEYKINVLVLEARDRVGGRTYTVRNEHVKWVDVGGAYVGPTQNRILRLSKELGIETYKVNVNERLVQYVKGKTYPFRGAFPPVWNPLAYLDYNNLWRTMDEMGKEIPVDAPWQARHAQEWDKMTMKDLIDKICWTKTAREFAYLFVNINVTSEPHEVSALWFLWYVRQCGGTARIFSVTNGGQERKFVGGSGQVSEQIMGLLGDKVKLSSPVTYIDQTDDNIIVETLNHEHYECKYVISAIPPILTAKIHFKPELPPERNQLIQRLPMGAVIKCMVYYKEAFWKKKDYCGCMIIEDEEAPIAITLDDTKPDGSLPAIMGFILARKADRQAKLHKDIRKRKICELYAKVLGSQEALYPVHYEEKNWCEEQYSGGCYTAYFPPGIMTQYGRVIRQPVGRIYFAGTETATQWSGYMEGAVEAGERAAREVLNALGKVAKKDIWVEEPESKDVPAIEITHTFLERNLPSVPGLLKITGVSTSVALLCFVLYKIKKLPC
Protocol: The MAO enzyme source was a homogenate of rat brain in 0.3M sucrose, which was centrifuged at 600G for 15 minutes. The supernatant was diluted appropriately in 0.05M phosphate buffer, and pre-incubated with serial dilutions of test compounds for 20 minutes at 37°C. ^14C-Labeled substrates (2-phenylethylamine, hereinafter PEA; 5-hydroxytryptamine, hereinafter 5-HT) were then added, and the incubation continued for a further 20 minutes (PEA), or 30-45 minutes (5-HT). Substrate concentrations used were 50µM (PEA) and 1mM (5-HT). In the case of PEA, enzyme concentration was chosen so that not more than 10% of the substrate was metabolized during the course of the reaction. The deaminated products were extracted into toluene-ethyl acetate (1:1, v/v) containing 0.6% (w/v) 2,5-diphenyloxazole prior to determination by liquid scintillation counting. Radioactivity in the eluate indicates the production of neutral and acidic metabolites formed as a result of MAO activity. Activity of MAO in the sample was expressed as a percentage of control activity in the absence of inhibitors after subtraction of appropriate blank values The activity determined using PEA as substrate is referred to as MAO-B, and that determined using 5-HT as MAO-A.

[4] = 4.1 mg/kg sc, 60 min before hypoxia
[5] = 6.2 mg/kg sc, 60 min before hypoxia

Row | Structure (SMILES) | Protection (% of control) (mice; 2 mg/kg sc, 30 min before hypoxia) | Protection (% of control) (mice; 2 mg/kg sc, 60 min before hypoxia) | Protection (% of control) (mice; 4.1 mg/kg sc, 30 min before hypoxia) | Protection (% of control) (mice; [4]) | Protection (% of control) (mice; [5]) | MAO-B Inhibition Ex vivo ED50 (MAO-B) | Time to peak activity t (whole brain AChE) [min] | Time to return to 50% of peak t (whole brain AChE) [min] | ED50 (whole brain AChE) [µmol/kg] | selectivity ratio [1] | LD50 at 6 h [1] [µmol/kg] | MAO-A Inhibition Ex vivo ED50 (MAO-A [2]) [µmol/kg] | IC50 (MAO-A [3]) [µM] | Protection (% of control) (mice; 4.5 mg/kg sc, 60 min before hypoxia) | Protection (% of control) (mice; 7 mg/kg sc, 60 min before hypoxia) | Protection (% of control) (mice; 15 mg/kg sc, 60 min before hypoxia) | Protection (% of control) (mice; 31 mg/kg sc, 60 min before hypoxia) | Protection (% of control) (mice; 62 mg/kg sc, 60 min before hypoxia) | Protection (% of control) (mice; 94 mg/kg sc, 60 min before hypoxia)
1 | C#CCNCCc1cccc(OC(=O)N(C)C)c1 [Compound 11] | 302±212 % of control | 128±40 % of control | 501±201 % of control | 416±211 % of control | 331±168 % of control | >>30 µmoles/kg | 15 | 70 | 3.2 | 13.8 | 44.2 | 40 | 2.5 |  |  |  |  |  | 
2 | C#CCN(C)CCc1cccc(OC(=O)N(C)C)c1 [Compound 12] |  |  |  |  |  | 21 µmol/kg | 15 to 30 | 120 | 2.8 | 11.5 | 46 | 4 | 0.38 | 97±36 % of control | 217±120 % of control |  |  |  | 
3 | C#CCNC(C)Cc1cccc(OC(=O)N(C)C)c1 (stereo not drawn) [Compound 16] |  |  |  | 335±202 % of control | 324±155 % of control | >20 µmol/kg | 15 | 70 | 2.3 | 18.3 | 42 | >20 | 7 |  |  | toxic |  |  | 
4 | C#CCNC(C)Cc1cccc(OC(=O)N(C)CC)c1 (stereo not drawn) [Compound 17, 3-(N-Me,N-Etcarbamyloxy)α-methyl, N-propargyl phenethylamine.HCl] |  |  |  |  |  | 40 µmol/kg | 30 to 60 | 120 | 64 | 9.4 | 600 | >40 | 12 |  |  |  | 149±44 % of control | 419±122 % of control | 281±158 % of control
